Data on 2 compounds can be found in PMC11167047 (Cell Death Discovery, 2024).

Holding throughout (assay): kinome screen (33PanQinase)
Format in all cases: biochemical

In one experiment the target is T1, CDK19/CycC (Homo sapiens, UniProt Q9BWU1).
T1 construct: purchased Reaction Biology Europe GmbH (formerly ProQinase)
As to the method: (§1) The Kinome Screening was performed by Reaction Biology Europe GmbH (http://reactionbiology.com; Freiburg i. Br., Germany).

A further experiment deals with T2, CSF1R (Homo sapiens, UniProt P07333).
T2 construct: purchased Reaction Biology Europe GmbH (formerly ProQinase)
Here is the method: as §1

The target in a further experiment is T3, DAPK3 (Homo sapiens, UniProt O43293).
T3 construct: purchased Reaction Biology Europe GmbH (formerly ProQinase)
As to the method:
as §1

The next experiment has as its target T4, DYRK1A (Homo sapiens, UniProt Q13627).
T4 construct: purchased Reaction Biology Europe GmbH (formerly ProQinase)
Here is the method: as §1

The next experiment concerns the target T5, EIF2AK3 (Homo sapiens, UniProt Q9NZJ5).
T5 construct: purchased Reaction Biology Europe GmbH (formerly ProQinase)
T5 sequence (Q9NZJ5 30-1116): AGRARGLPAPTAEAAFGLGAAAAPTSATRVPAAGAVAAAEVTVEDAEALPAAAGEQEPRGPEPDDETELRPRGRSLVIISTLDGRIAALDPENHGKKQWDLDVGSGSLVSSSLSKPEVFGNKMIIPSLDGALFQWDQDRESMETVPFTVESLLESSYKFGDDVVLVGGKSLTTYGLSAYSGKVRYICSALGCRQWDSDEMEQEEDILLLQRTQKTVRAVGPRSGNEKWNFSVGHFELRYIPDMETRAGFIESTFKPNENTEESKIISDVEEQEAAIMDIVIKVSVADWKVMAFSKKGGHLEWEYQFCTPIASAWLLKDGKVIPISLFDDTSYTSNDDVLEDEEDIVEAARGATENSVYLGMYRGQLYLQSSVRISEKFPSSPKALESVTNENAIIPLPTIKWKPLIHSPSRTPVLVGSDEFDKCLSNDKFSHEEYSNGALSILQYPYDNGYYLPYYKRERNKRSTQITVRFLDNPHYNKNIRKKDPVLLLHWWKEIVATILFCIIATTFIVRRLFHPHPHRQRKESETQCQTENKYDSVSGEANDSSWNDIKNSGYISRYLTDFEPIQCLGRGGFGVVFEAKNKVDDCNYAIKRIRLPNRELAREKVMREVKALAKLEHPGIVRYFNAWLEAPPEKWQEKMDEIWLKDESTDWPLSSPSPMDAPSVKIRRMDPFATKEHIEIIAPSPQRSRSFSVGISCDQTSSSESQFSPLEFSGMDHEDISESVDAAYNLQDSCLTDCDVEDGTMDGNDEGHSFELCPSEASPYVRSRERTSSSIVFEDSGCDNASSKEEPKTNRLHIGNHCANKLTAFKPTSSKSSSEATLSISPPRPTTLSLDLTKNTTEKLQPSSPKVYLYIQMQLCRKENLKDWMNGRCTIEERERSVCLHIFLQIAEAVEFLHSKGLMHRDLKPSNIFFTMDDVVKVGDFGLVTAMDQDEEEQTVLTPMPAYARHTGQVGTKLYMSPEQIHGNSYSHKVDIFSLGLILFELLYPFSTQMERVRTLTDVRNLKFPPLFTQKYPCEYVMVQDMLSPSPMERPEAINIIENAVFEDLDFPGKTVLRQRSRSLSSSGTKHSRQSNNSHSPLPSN
Here is the method:
as §1

The target in the next experiment is T6, ERK7 (Homo sapiens, UniProt Q8TD08).
T6 construct: purchased Reaction Biology Europe GmbH (formerly ProQinase)
T6 sequence (Q8TD08 1-544): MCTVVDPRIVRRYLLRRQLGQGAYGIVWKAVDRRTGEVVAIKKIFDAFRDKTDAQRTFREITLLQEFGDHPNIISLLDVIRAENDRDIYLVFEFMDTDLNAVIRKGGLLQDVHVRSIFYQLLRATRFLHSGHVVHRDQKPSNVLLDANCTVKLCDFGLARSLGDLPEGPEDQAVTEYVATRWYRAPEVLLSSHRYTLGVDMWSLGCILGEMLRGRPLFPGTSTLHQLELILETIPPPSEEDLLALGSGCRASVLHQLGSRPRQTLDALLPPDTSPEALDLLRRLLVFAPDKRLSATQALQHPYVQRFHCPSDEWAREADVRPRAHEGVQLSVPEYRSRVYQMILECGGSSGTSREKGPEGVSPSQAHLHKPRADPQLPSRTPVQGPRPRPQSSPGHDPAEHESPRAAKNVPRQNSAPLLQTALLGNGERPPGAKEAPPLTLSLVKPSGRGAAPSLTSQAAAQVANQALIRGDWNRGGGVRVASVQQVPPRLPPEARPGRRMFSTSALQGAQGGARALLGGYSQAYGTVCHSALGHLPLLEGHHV
Here is the method:
as §1

In another experiment the target is T7, GSK3α (Homo sapiens, UniProt P49840).
T7 construct: purchased Reaction Biology Europe GmbH (formerly ProQinase)
Here is the method: as §1

A further experiment has as its target T8, PKCζ (Homo sapiens, UniProt Q05513).
T8 construct: purchased Reaction Biology Europe GmbH (formerly ProQinase)
T8 sequence (Q05513 1-592): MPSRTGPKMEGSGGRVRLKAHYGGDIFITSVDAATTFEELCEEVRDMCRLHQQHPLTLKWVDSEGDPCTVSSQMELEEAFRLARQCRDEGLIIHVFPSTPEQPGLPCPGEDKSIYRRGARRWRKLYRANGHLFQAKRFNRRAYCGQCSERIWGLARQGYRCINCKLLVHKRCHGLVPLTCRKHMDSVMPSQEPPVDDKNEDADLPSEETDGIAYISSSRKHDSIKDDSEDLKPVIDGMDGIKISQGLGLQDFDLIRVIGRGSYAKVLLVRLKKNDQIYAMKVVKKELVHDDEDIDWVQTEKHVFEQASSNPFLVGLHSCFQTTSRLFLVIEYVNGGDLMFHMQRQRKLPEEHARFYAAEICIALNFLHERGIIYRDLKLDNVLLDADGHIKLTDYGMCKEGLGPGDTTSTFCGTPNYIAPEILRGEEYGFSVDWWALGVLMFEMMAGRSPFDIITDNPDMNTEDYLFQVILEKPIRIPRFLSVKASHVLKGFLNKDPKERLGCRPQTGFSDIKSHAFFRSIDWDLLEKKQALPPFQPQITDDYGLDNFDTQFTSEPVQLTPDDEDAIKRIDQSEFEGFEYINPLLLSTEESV
As to the method: as §1

In a further experiment the target is T9, RAF1 YDYD (Homo sapiens, UniProt P04049, Y340D/Y341D).
T9 construct: purchased Reaction Biology Europe GmbH (formerly ProQinase)
As to the method:
as §1

T7 sequence (P49840 whole entry): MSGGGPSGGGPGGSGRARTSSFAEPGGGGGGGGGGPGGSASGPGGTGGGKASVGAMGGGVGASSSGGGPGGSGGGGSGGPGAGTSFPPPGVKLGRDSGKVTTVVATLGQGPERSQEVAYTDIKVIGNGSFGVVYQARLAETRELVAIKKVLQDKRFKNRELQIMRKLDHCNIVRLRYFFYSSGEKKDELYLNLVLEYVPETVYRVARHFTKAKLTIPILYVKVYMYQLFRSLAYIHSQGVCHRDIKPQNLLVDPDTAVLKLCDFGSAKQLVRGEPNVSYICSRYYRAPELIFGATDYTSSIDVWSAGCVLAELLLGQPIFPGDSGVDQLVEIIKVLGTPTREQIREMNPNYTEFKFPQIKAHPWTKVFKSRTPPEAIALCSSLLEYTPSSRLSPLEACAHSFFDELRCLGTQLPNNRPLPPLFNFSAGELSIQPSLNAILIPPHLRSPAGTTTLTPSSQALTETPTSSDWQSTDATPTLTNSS
T3 sequence (O43293 whole entry): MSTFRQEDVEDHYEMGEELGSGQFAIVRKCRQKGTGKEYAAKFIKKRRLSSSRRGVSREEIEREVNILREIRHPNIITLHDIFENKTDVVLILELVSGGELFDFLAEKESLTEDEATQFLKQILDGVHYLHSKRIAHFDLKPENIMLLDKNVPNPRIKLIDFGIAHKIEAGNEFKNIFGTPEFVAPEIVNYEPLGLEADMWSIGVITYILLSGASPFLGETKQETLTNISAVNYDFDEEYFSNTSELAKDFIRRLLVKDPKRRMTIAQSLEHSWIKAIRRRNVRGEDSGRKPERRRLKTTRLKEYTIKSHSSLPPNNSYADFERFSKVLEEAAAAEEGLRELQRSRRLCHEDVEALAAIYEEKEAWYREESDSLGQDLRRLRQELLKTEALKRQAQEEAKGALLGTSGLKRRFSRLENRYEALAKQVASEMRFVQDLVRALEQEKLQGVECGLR
T2 sequence (P07333 20-972): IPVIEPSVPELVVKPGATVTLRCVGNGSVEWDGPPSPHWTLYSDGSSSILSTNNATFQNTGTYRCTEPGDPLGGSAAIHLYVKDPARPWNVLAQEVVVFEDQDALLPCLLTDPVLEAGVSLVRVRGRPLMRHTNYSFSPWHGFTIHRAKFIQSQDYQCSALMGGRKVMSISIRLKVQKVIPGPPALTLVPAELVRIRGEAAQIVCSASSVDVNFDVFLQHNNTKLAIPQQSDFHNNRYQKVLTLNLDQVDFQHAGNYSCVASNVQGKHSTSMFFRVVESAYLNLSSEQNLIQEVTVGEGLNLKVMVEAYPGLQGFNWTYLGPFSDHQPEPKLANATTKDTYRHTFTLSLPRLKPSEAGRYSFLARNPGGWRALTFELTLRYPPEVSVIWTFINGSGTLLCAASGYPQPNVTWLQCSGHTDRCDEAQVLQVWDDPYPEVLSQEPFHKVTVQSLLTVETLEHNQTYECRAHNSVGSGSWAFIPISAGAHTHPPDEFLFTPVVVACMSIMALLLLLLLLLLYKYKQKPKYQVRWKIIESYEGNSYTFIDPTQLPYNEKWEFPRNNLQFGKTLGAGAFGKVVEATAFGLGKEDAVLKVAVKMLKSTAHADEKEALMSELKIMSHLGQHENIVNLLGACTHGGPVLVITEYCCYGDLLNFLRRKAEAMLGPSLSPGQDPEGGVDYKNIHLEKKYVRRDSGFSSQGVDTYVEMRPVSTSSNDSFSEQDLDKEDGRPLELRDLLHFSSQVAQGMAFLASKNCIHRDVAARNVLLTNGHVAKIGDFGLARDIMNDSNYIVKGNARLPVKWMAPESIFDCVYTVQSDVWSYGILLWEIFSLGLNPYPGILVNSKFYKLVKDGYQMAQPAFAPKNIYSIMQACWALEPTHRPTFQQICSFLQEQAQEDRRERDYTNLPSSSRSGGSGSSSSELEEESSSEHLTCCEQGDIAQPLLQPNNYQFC
T1 sequence (Q9BWU1 whole entry): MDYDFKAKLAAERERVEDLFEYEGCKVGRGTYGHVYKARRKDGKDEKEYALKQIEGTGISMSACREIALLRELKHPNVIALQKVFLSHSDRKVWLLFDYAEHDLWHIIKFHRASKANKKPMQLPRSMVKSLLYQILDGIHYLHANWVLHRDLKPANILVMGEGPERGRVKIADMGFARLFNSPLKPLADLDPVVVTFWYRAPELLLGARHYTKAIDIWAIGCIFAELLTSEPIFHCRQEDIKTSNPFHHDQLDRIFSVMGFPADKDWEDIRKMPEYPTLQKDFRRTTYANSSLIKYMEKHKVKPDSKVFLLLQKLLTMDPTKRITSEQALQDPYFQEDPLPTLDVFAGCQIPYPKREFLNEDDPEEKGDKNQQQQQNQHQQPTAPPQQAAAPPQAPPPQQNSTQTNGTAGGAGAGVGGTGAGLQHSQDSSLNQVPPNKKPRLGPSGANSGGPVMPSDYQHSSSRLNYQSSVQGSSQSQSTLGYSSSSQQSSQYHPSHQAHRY
T1 sequence (P24863 whole entry partner): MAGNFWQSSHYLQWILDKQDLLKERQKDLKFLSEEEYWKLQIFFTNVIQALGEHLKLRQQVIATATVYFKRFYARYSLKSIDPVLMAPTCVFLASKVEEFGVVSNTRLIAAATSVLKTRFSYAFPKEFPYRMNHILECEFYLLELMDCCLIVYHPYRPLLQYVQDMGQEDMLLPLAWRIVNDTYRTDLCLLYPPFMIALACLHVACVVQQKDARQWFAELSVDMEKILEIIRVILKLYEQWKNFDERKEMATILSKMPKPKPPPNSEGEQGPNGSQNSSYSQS
T9 sequence (P04049 306-648 Y340D/Y341D limits assumed): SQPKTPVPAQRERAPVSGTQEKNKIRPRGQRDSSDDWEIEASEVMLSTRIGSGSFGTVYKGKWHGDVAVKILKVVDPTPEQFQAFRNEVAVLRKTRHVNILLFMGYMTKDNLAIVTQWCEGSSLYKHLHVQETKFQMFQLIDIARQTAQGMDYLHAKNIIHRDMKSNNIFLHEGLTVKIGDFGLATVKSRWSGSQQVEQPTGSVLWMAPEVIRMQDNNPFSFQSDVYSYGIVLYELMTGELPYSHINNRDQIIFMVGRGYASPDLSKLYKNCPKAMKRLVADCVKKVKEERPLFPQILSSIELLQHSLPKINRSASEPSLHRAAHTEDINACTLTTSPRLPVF

With `c1ccc(CNc2cc(-c3c[nH]c4ncccc34)ccn2)cc1` [meriolin 36], the residual kinase activity on CDK19/CycC (0.3 µM) is given as 3 % of control; at CDK19/CycC (3 µM), 0 % of control; on CSF1R (0.3 µM), 33 % of control; at CSF1R (3 µM), 14 % of control; at DAPK3 (0.3 µM), 80 % of control; at DAPK3 (3 µM), 25 % of control. The residual kinase activity is recorded as 7 % of control at DYRK1A (0.3 µM); 0 % of control at DYRK1A (3 µM); 81 % of control on EIF2AK3 (0.3 µM); 74 % of control on EIF2AK3 (3 µM); 7 % of control on ERK7 (0.3 µM); -3 % of control on ERK7 (3 µM). In addition, the residual kinase activity at GSK3α (0.3 µM) is recorded as 41 % of control; on GSK3α (3 µM), 7 % of control; at PKCζ (0.3 µM), 85 % of control; at PKCζ (3 µM), 29 % of control; on RAF1 YDYD (0.3 µM), 67 % of control; on RAF1 YDYD (3 µM), 67 % of control.
As for `COc1ccnc2[nH]cc(-c3cc(N)nc(N)c3)c12` [meriolin 16], the residual kinase activity at CDK19/CycC (0.03 µM) was 6 % of control; on CDK19/CycC (0.3 µM), 2 % of control; at CSF1R (0.03 µM) it was 90 % of control; on CSF1R (0.3 µM), 88 % of control; on DAPK3 (0.03 µM), 98 % of control; at DAPK3 (0.3 µM), 51 % of control. Also, the residual kinase activity on DYRK1A (0.03 µM) is given as 11 % of control; at DYRK1A (0.3 µM) it was 2 % of control; on EIF2AK3 (0.03 µM), 87 % of control; at EIF2AK3 (0.3 µM), 90 % of control; at ERK7 (0.03 µM) it was 86 % of control; at ERK7 (0.3 µM), 59 % of control. Further, the residual kinase activity is 99 % of control at GSK3α (0.03 µM); 93 % of control at GSK3α (0.3 µM); 97 % of control at PKCζ (0.03 µM); 78 % of control at PKCζ (0.3 µM); 77 % of control on RAF1 YDYD (0.03 µM); 96 % of control on RAF1 YDYD (0.3 µM).
